Measurements as given in paper PMC10406941 (Scientific Reports, 2023).
Where two headings read alike, the source gives them in different places.

Tests used:
SARS-CoV-2 [1] = experiment: Anti-SARS-CoV-2 activity, detection of viral genomes by RT-qPCR on infected cells; assay type: cell-based; settings: for fold reduction in anti-SARS-CoV-2 activity: relative to PB28, Vero E6 cells; for anti-SARS-CoV-2 activity in words: Vero E6 cells
S2R [2] = biological target: T1, S2R (Rattus norvegicus, UniProt Q5U3Y7); settings: [3H]-DTG, rat liver, masking with (+)-Pentazocine, cited from earlier work
T1 construct: [^3H]-DTG on rat liver masking with ( +)-Pentazocine according to the generally accepted protocol; from tissue; host or cells: rat liver
T1 sequence (Q5U3Y7 1-176): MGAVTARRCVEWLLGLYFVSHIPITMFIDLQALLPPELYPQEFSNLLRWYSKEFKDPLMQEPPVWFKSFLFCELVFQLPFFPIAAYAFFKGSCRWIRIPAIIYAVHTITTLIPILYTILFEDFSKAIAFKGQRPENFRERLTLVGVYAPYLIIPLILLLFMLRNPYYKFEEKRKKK

S1R [3] = biological target: T2, S1R (Cavia porcellus, UniProt Q60492); settings: cited from earlier work
T2 construct: [^3H]-( +)-Pentazocine on guinea pig brain according to the generally accepted protocol; from tissue; host or cells: guinea pig brain

S1R [4] = biological target: T2, S1R; experiment: S1R radioligand binding assay, [3H]-(+)-Pentazocine on guinea pig brain; settings: Table 1, compound 6 (no reference cited)
S2R [5] = biological target: T1, S2R; experiment: S2R radioligand binding assay, [3H]-DTG on rat liver masking with (+)-Pentazocine; settings: Table 1, compound 6 (no reference cited)
SARS-CoV-2 [6] = settings: read-out: IC90 anti-SARS-CoV-2 activity in vitro; cited from earlier work
[7] = Table 3, RT-qPCR of viral genomes, Vero E6 cells infected with SARS-CoV-2, read-out: IC50 (μM) SARS-CoV-2
[8] = Table 3, [3H]-(+)-Pentazocine, guinea pig brain, read-out: Ki nM S1R
[9] = Table 1, RT-qPCR of viral genomes, Vero E6 cells infected with SARS-CoV-2, one representative experiment of at least three, read-out: IC50 (μM) SARS-CoV-2
[10] = Table 1, mean of three experiments in duplicate
[11] = Table 1, [3H]-(+)-Pentazocine, guinea pig brain, mean of three experiments in duplicate, read-out: Ki nM S1R
[12] = Table 1, RT-qPCR of viral genomes, Vero E6 cells infected with SARS-CoV-2, one representative experiment of at least three
[13] = Table 4, RT-qPCR of viral genomes, Vero E6 cells infected with SARS-CoV-2
[14] = Table 4, [3H]-(+)-Pentazocine, guinea pig brain, read-out: Ki Nm S1R

T2 sequence (Q60492 whole entry): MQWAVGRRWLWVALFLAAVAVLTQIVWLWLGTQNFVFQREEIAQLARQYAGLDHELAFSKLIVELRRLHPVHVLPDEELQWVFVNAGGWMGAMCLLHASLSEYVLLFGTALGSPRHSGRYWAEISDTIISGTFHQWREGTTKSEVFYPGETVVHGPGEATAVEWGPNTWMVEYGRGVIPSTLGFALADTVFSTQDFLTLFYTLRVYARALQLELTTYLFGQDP

CCCN1CCN(CCCC2CCCc3c(OC)cccc32)CC1 (racemic) [Compound 24]
IC50 (SARS-CoV-2 [1]; [7]): 2.26 µM | fold reduction in anti-SARS-CoV-2 activity (SARS-CoV-2 [1]): 8 fold | Ki (S2R [2]; Table 3): 42.5 nM | Ki (S1R [3]; [8]): 9.6 nM

c1ccc2c(CCCCCN3CCN(C4CCCCC4)CC3)cccc2c1 [Compound 12]
IC50 (SARS-CoV-2 [1]; [9]): 0.52 µM | Ki (S2R [2]; [10]): 0.57 nM | Ki (S1R [3]; [11]): 2.4 nM

Oc1cccc2c1CCCC2CCCN1CCN(C2CCCCC2)CC1 (racemic) [Compound 15]
IC50 (μM) SARS-CoV-2 (SARS-CoV-2 [1]; [12]): NOT ACTIVE | anti-SARS-CoV-2 activity in words (SARS-CoV-2 [1]): complete loss of antiviral activity | Ki (S2R [2]; [10]): 2.66 nM

COc1cccc2c1CCCC2CCCN1CCN(C)CC1 (racemic) [Compound 23]
IC50 (SARS-CoV-2 [1]; [7]): 5.78 µM | fold reduction in anti-SARS-CoV-2 activity (SARS-CoV-2 [1]): 20 fold | Ki (S2R [2]; Table 3): 663 nM | Ki (S1R [3]; [8]): 17.8 nM

COc1cccc2c1CCCC2CCCCCCN1CCN(C2CCCCC2)CC1 (racemic) [Compound 6]
IC50 (SARS-CoV-2 [1]; [9]): 1.32 µM | fold reduction in anti-SARS-CoV-2 activity (SARS-CoV-2 [1]): threefold less potent | Ki (S1R [4]): 3.07 nM | Ki (S2R [5]): 103 nM

Oc1ccc2c(CCCN3CCN(C4CCCCC4)CC3)cccc2c1 [Compound 17]
IC50 (μM) SARS-CoV-2 (SARS-CoV-2 [1]; [12]): NOT ACTIVE | anti-SARS-CoV-2 activity in words (SARS-CoV-2 [1]): complete loss of antiviral activity | Ki (S2R [2]; [10]): 26.4 nM | Ki (S1R [3]; [11]): 6.78 nM

COc1cccc2c(CCCN3CCN(C4CCCCC4)CC3)cccc12 [Compound 13]
IC50 (SARS-CoV-2 [1]; [9]): 0.306 µM | Ki (S2R [2]; [10]): 9.24 nM

COc1ccc2c(CCCCN3CCC(C)CC3)cccc2c1 [PB212, reference compound]
IC50 (μM) SARS-CoV-2 (SARS-CoV-2 [1]; [13]): NOT ACTIVE | anti-SARS-CoV-2 activity in words (SARS-CoV-2 [1]): did not demonstrate any antiviral effect | Ki (S2R [2]; Table 4): 17.9 nM | Ki (S1R [3]; [14]): 0.03 nM

Oc1ccc2cccc(CCCN3CCN(C4CCCCC4)CC3)c2c1 [Compound 18]
IC50 (μM) SARS-CoV-2 (SARS-CoV-2 [1]; [12]): NOT ACTIVE | anti-SARS-CoV-2 activity in words (SARS-CoV-2 [1]): complete loss of antiviral activity | Ki (S2R [2]; [10]): 11.8 nM | Ki (S1R [3]; [11]): 5.48 nM

COc1ccc2c(CCCN3CCN(C4CCCCC4)CC3)cccc2c1 [Compound 14]
IC50 (μM) SARS-CoV-2 (SARS-CoV-2 [1]; [12]): NOT ACTIVE | anti-SARS-CoV-2 activity in words (SARS-CoV-2 [1]): complete loss of activity | Ki (S2R [2]; [10]): 9.02 nM | Ki (S1R [3]; [11]): 3.16 nM

COc1cccc2c1CCCC2CCCN1CCN(C2CCCCC2)CC1 (centres unmarked) [PB28, 1-Cyclohexyl-4-[3-(5-methoxy-1,2,3,4-tetrahydronaphthalen-1-yl)propyl]piperazine, reference compound]
IC50 (SARS-CoV-2 [1]; Severe acute respiratory syndrome coronavirus 2, Vero C1008, read-out: IC50 (μM) SARS-CoV-2): 0.299 µM | IC90 (SARS-CoV-2 [6]): 280 nM

COc1cccc2c1CCCC2N1CCN(C2CCCCC2)CC1 (racemic) [Compound 1]
IC50 (μM) SARS-CoV-2 (SARS-CoV-2 [1]; [12]): NOT ACTIVE | anti-SARS-CoV-2 activity in words (SARS-CoV-2 [1]): loss of activity | Ki (S2R [2]; [10]): 7.9 nM | Ki (S1R [3]; [11]): 0.4 nM

COc1ccc2c(c1)CCCC2CCCN1CCN(C2CCCCC2)CC1 (racemic) [Compound 10]
IC50 (SARS-CoV-2 [1]; [9]): 0.47 µM | Ki (S2R [2]; [10]): 5.42 nM | Ki (S1R [3]; [11]): 0.36 nM | Ki (S1R [3]; as quoted in the text of the docking section, read-out: Ki (S1R)): 0.38 nM

c1ccc2c(c1)CCCC2CCCCN1CCN(C2CCCCC2)CC1 (racemic) [Compound 8]
IC50 (SARS-CoV-2 [1]; [9]): 0.317 µM | Ki (S2R [2]; [10]): 14.6 nM

c1ccc2c(c1)CCCC2CCCN1CCN(C2CCCCC2)CC1 (racemic) [Compound 7]
IC50 (SARS-CoV-2 [1]; [9]): 0.438 µM | Ki (S2R [2]; [10]): 0.68 nM | Ki (S1R [3]; [11]): 0.61 nM

COc1ccc2c(c1)CCCC2CCCCN1CCC(C)CC1 (centres unmarked) [PB190, reference compound]
IC50 (μM) SARS-CoV-2 (SARS-CoV-2 [1]; [13]): NOT ACTIVE | anti-SARS-CoV-2 activity in words (SARS-CoV-2 [1]): did not demonstrate any antiviral effect | Ki (S2R [2]; Table 4): 36.3 nM | Ki (S1R [3]; [14]): 0.42 nM

COc1cccc2c1CCC[C@H]2CCCN1CCN(C2CCCCC2)CC1 [( +)-S-PB28]
IC50 (SARS-CoV-2 [1]; [9]): 0.455 µM | Ki (S2R [2]; [10]): 1.18 nM

COc1cccc2c1CCCC2CCN1CCN(C2CCCCC2)CC1 (racemic) [Compound 3]
IC50 (SARS-CoV-2 [1]; [9]): 12.6 µM | fold reduction in anti-SARS-CoV-2 activity (SARS-CoV-2 [1]): 40 fold | Ki (S2R [2]; [10]): 21.1 nM | Ki (S1R [3]; [11]): 1.57 nM

COc1cccc2c1CCCC2CN1CCN(C2CCCCC2)CC1 (racemic) [Compound 2]
IC50 (SARS-CoV-2 [1]; [9]): 5.9 µM | fold reduction in anti-SARS-CoV-2 activity (SARS-CoV-2 [1]): 20 fold | Ki (S2R [2]; [10]): 16.4 nM | Ki (S1R [3]; [11]): 0.31 nM

c1ccc2c(c1)CCCC2CCCCCN1CCN(C2CCCCC2)CC1 (racemic) [Compound 9]
IC50 (SARS-CoV-2 [1]; [9]): 0.19 µM | Ki (S2R [2]; [10]): 7.85 nM | Ki (S1R [3]; [11]): 1.45 nM

COc1cccc2c1CCCC2CCCCCN1CCN(C2CCCCC2)CC1 (racemic) [Compound 5]
IC50 (SARS-CoV-2 [1]; [9]): 0.19 µM | Ki (S2R [2]; [10]): 0.35 nM | Ki (S1R [3]; [11]): 1.52 nM

COc1cccc2c1CCC[C@@H]2CCCN1CCN(C2CCCCC2)CC1 [(-)-R-PB28]
IC50 (SARS-CoV-2 [1]; [9]): 0.309 µM | Ki (S2R [2]; [10]): 0.49 nM

Oc1ccc2c(c1)CCCC2CCCN1CCN(C2CCCCC2)CC1 (racemic) [Compound 16]
IC50 (μM) SARS-CoV-2 (SARS-CoV-2 [1]; [12]): NOT ACTIVE | anti-SARS-CoV-2 activity in words (SARS-CoV-2 [1]): complete loss of antiviral activity | Ki (S2R [2]; [10]): 1.12 nM | Ki (S1R [3]; [11]): 0.69 nM

CCC(CC)N1CCN(CCCC2CCCc3c(OC)cccc32)CC1 (racemic) [Compound 25]
IC50 (μM) SARS-CoV-2 (SARS-CoV-2 [1]; Table 3, RT-qPCR of viral genomes, Vero E6 cells infected with SARS-CoV-2): NOT ACTIVE | anti-SARS-CoV-2 activity in words (SARS-CoV-2 [1]): no anti-SARS-CoV-2 activity | Ki (S2R [2]; Table 3): 12.7 nM | Ki (S1R [3]; [8]): 12 nM

COc1cccc2c1CCCC2CCCCN1CCN(C2CCCCC2)CC1 (racemic) [Compound 4]
IC50 (SARS-CoV-2 [1]; [9]): 0.32 µM | Ki (S2R [2]; [10]): 3.58 nM

c1ccc2c(CCCN3CCN(C4CCCCC4)CC3)cccc2c1 [Compound 11]
IC50 (SARS-CoV-2 [1]; [9]): 0.94 µM | Ki (S2R [2]; [10]): 0.69 nM | Ki (S1R [3]; [11]): 2.16 nM
